The values that follow come from US12036291B2, “Probes for imaging huntingtin protein” (CHDI Foundation, Inc., priority 2014, dated 2024).

The IC50 is the concentration needed to halve the response being measured.

Molecules are shown by their SMILES. Where only a bound is given, the exact number is not on record here.

One test concerns the target T1, Q46 protein aggregates (Homo sapiens, UniProt P42858).
T1 construct: fused on or other part: GST at the N-terminus, cut off with thrombin before aggregation
In words: Q46 Radioligand Binding Assay (RBA), displacement of [3H3]MK-3328. The settings on record: 5 μM Q46 protein aggregates, 10 nM ligand [3H3]MK-3328, 60 minutes at 37° C. The method, then:
Q46 Radioligand Binding Assay
For radioligand binding assays (RBA) GST-Q46 protein was generated based on a previous publication (Scherzinger et al. Cell, Vol. 90, 549-558, Aug. 8, 1997). For experiments 33 μM GST-Q46 was incubated with 150 μg/ml thrombin in assay buffer (150 mM NaCl, 50 mM Tris pH 8.0) and 2 mM CaCl2 for 16 hr at 37° C. Aggregated Q46 was pelleted by centrifugation for 5 min at 13,000 rpm in a bench top centrifuge and re-dissolved in the same volume of assay buffer. Test compounds were prepared by titration in DMSO at 11 concentrations from 33 μM to 1 nM. For the RBA, Q46 protein aggregates and test compounds were pre-incubated in assay buffer for 20 min at room temperature, in 140 μL/well in a 96-well plate (pp, round bottom). Then, ligand was added in 10 μL/well and incubated for 60 minutes at 37° C. Final assay concentrations were […] test compound, 5 μM Q46 protein (equivalent monomer concentration) and 10 nM ligand [^3H3]MK-3328 (Harrision et al., ACS Med Chem. Lett., 2 (2011), pp 498-502). Samples were transferred onto GF/B filter plates and washed 2× with 200 μL PBS using a Filtermate Harvester. After drying filter plates for 1 hour at 37° C., the back of the plates was sealed with foil and 30 μL/well scintillation fluid (Packard MicroScint 40) was added, incubated for 15 min in the dark and counted in a TopCount reader. For analysis, replicate data from independent assay plates were normalized towards 0% and 100% inhibition using control wells of vehicle (0% inhibition) and 3 μM unlabelled MK-3328 (100% inhibition). IC50 values were determined with a sigmoidal inhibition model with four variables (top, bottom, slope, IC50) in a global fit using the normalized replicate data.

In test [1] the test system is NFT in sections of AD brain tissue. As to conditions: in vitro autoradiography ([125I]SBIM-3) and fluorescent staining (SBIM-3); cited from earlier work.
In test [2] the test system is recombinant tau and amyloid β1-42 (Aβ1-42) aggregates. The settings on record: higher affinity for the tau aggregates than Aβ1-42 aggregates; cited from earlier work.

T1 sequence (P42858 with tags, fused parts or gaps with the stated changes, form open): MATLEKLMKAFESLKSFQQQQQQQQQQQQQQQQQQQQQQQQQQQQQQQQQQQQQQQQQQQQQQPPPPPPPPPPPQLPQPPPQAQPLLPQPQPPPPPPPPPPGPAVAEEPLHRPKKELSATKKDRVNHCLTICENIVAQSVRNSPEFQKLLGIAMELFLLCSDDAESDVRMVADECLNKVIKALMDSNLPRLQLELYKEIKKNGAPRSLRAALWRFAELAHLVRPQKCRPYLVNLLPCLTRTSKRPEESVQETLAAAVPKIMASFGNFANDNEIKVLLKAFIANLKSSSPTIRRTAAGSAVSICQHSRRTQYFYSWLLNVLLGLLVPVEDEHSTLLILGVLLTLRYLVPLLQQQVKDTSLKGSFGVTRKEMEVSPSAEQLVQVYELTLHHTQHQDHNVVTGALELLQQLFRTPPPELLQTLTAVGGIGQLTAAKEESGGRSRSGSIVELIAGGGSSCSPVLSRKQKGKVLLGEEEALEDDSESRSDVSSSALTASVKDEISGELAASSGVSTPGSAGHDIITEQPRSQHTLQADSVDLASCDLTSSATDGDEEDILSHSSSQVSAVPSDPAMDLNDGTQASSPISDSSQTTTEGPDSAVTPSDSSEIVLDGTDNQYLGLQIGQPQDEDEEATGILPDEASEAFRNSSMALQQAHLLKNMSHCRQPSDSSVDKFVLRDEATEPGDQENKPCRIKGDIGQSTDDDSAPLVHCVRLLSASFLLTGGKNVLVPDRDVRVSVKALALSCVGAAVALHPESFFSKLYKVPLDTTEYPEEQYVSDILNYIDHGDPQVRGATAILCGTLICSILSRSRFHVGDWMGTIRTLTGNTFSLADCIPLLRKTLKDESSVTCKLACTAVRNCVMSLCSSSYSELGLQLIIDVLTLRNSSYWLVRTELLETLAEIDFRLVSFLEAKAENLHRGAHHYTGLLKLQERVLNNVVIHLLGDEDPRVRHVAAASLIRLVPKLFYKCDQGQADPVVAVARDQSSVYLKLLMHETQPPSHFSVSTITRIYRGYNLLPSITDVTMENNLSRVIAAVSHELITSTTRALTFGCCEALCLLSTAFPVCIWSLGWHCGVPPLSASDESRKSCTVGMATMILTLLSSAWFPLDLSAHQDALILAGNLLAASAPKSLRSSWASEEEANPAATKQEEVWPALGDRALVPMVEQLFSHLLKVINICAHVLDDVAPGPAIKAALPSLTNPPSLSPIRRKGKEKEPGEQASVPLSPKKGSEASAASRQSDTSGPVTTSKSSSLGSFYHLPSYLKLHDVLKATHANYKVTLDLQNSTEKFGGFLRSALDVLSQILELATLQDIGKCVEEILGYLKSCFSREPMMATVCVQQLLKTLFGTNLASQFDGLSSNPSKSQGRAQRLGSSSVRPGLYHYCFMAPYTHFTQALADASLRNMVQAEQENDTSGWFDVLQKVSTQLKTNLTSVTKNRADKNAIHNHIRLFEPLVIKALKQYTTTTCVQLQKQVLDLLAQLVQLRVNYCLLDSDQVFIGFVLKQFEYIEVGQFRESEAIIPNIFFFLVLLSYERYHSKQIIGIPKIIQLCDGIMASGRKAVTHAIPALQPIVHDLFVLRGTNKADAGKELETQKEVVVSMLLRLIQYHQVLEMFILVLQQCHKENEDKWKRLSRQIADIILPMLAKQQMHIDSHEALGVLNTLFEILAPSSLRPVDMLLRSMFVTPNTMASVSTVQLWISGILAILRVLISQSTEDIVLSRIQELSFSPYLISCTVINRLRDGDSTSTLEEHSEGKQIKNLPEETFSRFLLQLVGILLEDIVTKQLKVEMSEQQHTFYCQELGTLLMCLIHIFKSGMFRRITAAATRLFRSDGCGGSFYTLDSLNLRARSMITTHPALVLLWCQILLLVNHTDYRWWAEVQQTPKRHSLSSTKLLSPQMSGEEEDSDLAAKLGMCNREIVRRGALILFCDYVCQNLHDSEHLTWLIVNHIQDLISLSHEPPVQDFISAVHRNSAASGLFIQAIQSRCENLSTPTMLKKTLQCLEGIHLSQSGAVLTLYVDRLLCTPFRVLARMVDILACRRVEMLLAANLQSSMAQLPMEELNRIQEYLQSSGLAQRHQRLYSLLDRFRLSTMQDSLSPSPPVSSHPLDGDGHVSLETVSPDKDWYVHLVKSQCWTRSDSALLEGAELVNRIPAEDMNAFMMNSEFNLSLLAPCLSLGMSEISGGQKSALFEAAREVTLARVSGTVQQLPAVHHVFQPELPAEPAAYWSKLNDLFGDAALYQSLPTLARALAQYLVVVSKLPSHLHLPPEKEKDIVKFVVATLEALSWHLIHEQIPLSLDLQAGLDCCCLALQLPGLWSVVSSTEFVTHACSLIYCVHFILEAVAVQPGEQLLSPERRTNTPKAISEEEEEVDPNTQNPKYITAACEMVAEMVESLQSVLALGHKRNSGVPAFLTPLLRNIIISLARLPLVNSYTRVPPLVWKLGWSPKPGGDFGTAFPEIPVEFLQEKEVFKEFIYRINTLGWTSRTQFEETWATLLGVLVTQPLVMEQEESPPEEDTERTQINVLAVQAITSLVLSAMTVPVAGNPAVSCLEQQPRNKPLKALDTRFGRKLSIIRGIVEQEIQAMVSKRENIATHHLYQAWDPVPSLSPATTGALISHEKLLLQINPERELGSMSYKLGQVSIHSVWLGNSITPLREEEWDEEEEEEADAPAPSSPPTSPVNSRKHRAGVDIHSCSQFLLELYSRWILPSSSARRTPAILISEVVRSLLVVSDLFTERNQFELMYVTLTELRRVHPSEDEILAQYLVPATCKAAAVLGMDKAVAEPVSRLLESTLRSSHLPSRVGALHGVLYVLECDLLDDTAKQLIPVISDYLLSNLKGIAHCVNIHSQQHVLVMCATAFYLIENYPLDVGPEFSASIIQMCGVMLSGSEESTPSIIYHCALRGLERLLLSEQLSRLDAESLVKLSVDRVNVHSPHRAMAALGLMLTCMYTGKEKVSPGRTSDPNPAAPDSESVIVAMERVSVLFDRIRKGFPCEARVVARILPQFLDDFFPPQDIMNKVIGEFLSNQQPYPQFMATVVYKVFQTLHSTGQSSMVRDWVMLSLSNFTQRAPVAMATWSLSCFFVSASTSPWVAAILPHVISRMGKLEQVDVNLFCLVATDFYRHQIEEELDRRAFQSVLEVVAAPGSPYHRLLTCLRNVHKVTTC

As for `N#Cc1cnccc1N1Cc2ccc(OCc3cncnc3)cc2C1` [4-[5-(pyrimidin-5-ylmethoxy)-2,3-dihydro-1H-isoindol-2-yl]pyridine-3-carbonitrile], the half-inhibitory concentration (IC50) on Q46 protein aggregates was less than 100 nM.

The compound `COc1ccc2c(c1)CN(c1ncncc1C#N)C2` [4-(5-methoxy-2,3-dihydro-1H-isoindol-2-yl)pyrimidine-5-carbonitrile] gave a concentration for half-maximal inhibition (IC50) at Q46 protein aggregates of less than 100 nM.

In turn, `N#Cc1cccnc1N1Cc2ccc(OCc3cncnc3)cc2C1` [2-[5-(pyrimidin-5-ylmethoxy)-2,3-dihydro-1H-isoindol-2-yl]pyridine-3-carbonitrile] displayed a concentration for half-maximal inhibition (IC50) at Q46 protein aggregates of less than 100 nM.

`N#Cc1cnccc1N1Cc2ccc(OCc3ccc(O)cn3)cc2C1` [4-{5-[(5-hydroxypyridin-2-yl)methoxy]-2,3-dihydro-1H-isoindol-2-yl}pyridine-3-carbonitrile]: on Q46 protein aggregates, the IC50 is less than 100 nM.

Consider `CN(C)c1ccc(/C=C/c2nc3ccc(I)cc3[nH]2)cc1` [SBIM-3, 4-[(E)-2-(6-iodo-1H-benzimidazol-2-yl)ethenyl]-N,N-di methyl aniline], for which the “binding to NFT in sections of AD brain tissue” value in test [1] was “bound NFT in sections of AD brain tissue”. Also, the “ratio of Kd values (affinity for tau aggregates versus Aβ1-42 aggregates)” value in test [2] was 2.73.

`COc1cnc(COc2ccc3c(c2)CN(c2ccncc2)C3)cn1` [5-[(5-methoxypyrazin-2-yl)methoxy]-2-(pyridin-4-yl)-2,3-dihydro-1H-isoindole] had an IC50 on Q46 protein aggregates of less than 100 nM.

Take `COc1ccc(COc2ccc3c(c2)CN(c2ccc(=O)n(C)n2)C3)nc1` [6-{5-[(5-methoxypyridin-2-yl)methoxy]-2,3-dihydro-1H-isoindol-2-yl}-2-methyl-2,3-dihydropyridazin-3-one]: at Q46 protein aggregates, the IC50 is less than 100 nM.

Turning to `COc1ccc(COc2ccc3c(c2)CN(c2ccncc2C#N)C3)nc1` [4-{5-[(5-methoxypyridin-2-yl)methoxy]-2,3-dihydro-1H-isoindol-2-yl}pyridine-3-carbonitrile], on Q46 protein aggregates, the 50% inhibitory concentration (IC50) was less than 100 nM.

`N#Cc1cncnc1N1Cc2ccc(OCc3ccc(O)cn3)cc2C1` [4-{5-[(5-hydroxypyridin-2-yl)methoxy]-2,3-dihydro-1H-isoindol-2-yl}pyrimidine-5-carbonitrile] had an IC50 at Q46 protein aggregates of less than 100 nM.

As for `COc1ccc2c(c1)CN(c1ncccc1C#N)C2` [2-(5-methoxy-2,3-dihydro-1H-isoindol-2-yl)pyridine-3-carbonitrile], the concentration for half-maximal inhibition (IC50) on Q46 protein aggregates is less than 100 nM.

`COc1ccc(COc2ccc3c(c2)CN(c2ncccc2C#N)C3)nc1` [2-{5-[(5-methoxypyridin-2-yl)methoxy]-2,3-dihydro-1H-isoindol-2-yl}pyridine-3-carbonitrile] gave a 50% inhibitory concentration (IC50) at Q46 protein aggregates of less than 100 nM.

With `COc1ccc(COc2ccc3c(c2)CN(c2ncncc2C#N)C3)nc1` [4-{5-[(5-methoxypyridin-2-yl)methoxy]-2,3-dihydro-1H-isoindol-2-yl}pyrimidine-5-carbonitrile], the IC50 at Q46 protein aggregates was less than 100 nM.

Take `N#Cc1cncnc1N1Cc2ccc(OCc3ccccc3)cc2C1` [4-[5-(benzyloxy)-2,3-dihydro-1H-isoindol-2-yl]pyrimidine-5-carbonitrile]: the IC50 on Q46 protein aggregates was less than 100 nM.

Take `COc1ccc2c(c1)CN(c1ccncc1C#N)C2` [4-(5-methoxy-2,3-dihydro-1H-isoindol-2-yl)pyridine-3-carbonitrile]: the half-maximal inhibitory concentration (IC50) on Q46 protein aggregates was less than 100 nM.

Consider `COc1ccc(COc2ccc3c(c2)CN(c2ccncc2)C3=O)nc1` [5-[(5-methoxypyridin-2-yl)methoxy]-2-(pyridin-4-yl)-2,3-dihydro-1H-isoindol-1-one], for which the half-maximal inhibitory concentration (IC50) at Q46 protein aggregates is less than 100 nM.
